Tested on: 695427-040-R-J1-PDC complex spheroid viability
Assay: Anticancer human tumor 695427-040-R-J1-PDC patient-derived colon adenocarcinoma cell line growth inhibition [POLQ]
Settings: for IC50: curve of first compound; for viability, T/C: stronger effect = lower value
Method in brief: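 Complex spheroid viability model combining PDC tumour cells with endothelial (HUVEC) and MSC stromal cells. Novobiocin, ART-558 or RP6685 were tested singly and in combination with standard and investigational anticancer drugs. Each was titrated in half-log steps from near clinical Cmax, or from 10 microM where Cmax was unknown.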

[1] = second compound 0.0316 µM, first compound 0.0316 µM
[2] = second compound 0.0316 µM, first compound 0.1 µM
[3] = second compound 0.0316 µM, first compound 0.316 µM
[4] = second compound 0.0316 µM, first compound 1 µM
[5] = second compound 0.0316 µM, first compound 3.16 µM
[6] = second compound 0.0316 µM, first compound 10 µM
[7] = second compound 0.1 µM, first compound 0.0316 µM
[8] = second compound 0.1 µM, first compound 0.1 µM
[9] = second compound 0.1 µM, first compound 0.316 µM
[10] = second compound 0.1 µM, first compound 1 µM
[11] = second compound 0.1 µM, first compound 3.16 µM
[12] = second compound 0.1 µM, first compound 10 µM
[13] = second compound 0.316 µM, first compound 0.0316 µM
[14] = second compound 0.316 µM, first compound 0.1 µM
[15] = second compound 0.316 µM, first compound 0.316 µM
[16] = second compound 0.316 µM, first compound 1 µM
[17] = second compound 0.316 µM, first compound 3.16 µM
[18] = second compound 0.316 µM, first compound 10 µM
[19] = second compound 1 µM, first compound 0.0316 µM
[20] = second compound 1 µM, first compound 0.1 µM
[21] = second compound 1 µM, first compound 0.316 µM
[22] = second compound 1 µM, first compound 1 µM
[23] = second compound 1 µM, first compound 3.16 µM
[24] = second compound 1 µM, first compound 10 µM
[25] = second compound 3.16 µM, first compound 0.0316 µM
[26] = second compound 3.16 µM, first compound 0.1 µM
[27] = second compound 3.16 µM, first compound 0.316 µM
[28] = second compound 3.16 µM, first compound 1 µM
[29] = second compound 3.16 µM, first compound 3.16 µM
[30] = second compound 3.16 µM, first compound 10 µM
[31] = second compound 10 µM, first compound 0.0316 µM
[32] = second compound 10 µM, first compound 0.1 µM
[33] = second compound 10 µM, first compound 0.316 µM
[34] = second compound 10 µM, first compound 1 µM
[35] = second compound 10 µM, first compound 3.16 µM
[36] = second compound 10 µM, first compound 10 µM
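Note: spheroids exposed to compounds for seven days.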
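Throughout, for viability, T/C: 100% = DMSO vehicle control viability.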

COc1cc(C2c3cc4c(cc3C(OC3OC5COC(C)OC5C(O)C3O)C3COC(=O)C23)OCO4)cc(OC)c1O (stereo unspecified) + Nc1ccc(C#CCN(C(=O)Cc2ncc(C(F)(F)F)cc2C(F)(F)F)c2ccc(F)cc2)nn1
IC50 (second compound 0.0316 µM): > 10 µM
IC50 (second compound 0.1 µM): > 10 µM
IC50 (second compound 0.316 µM): > 10 µM
IC50 (second compound 1 µM): > 10 µM
IC50 (second compound 3.16 µM): > 10 µM
IC50 (second compound 10 µM): > 10 µM
viability, T/C [1]: 104%
viability, T/C [2]: 97.9%
viability, T/C [3]: 98%
viability, T/C [4]: 97.8%
viability, T/C [5]: 95.2%
viability, T/C [6]: 87.4%
viability, T/C [7]: 99%
viability, T/C [8]: 97.2%
viability, T/C [9]: 100%
viability, T/C [10]: 104%
viability, T/C [11]: 102%
viability, T/C [12]: 89.4%
viability, T/C [13]: 98.4%
viability, T/C [14]: 90.5%
viability, T/C [15]: 98.3%
viability, T/C [16]: 97.6%
viability, T/C [17]: 113%
viability, T/C [18]: 91.3%
viability, T/C [19]: 101%
viability, T/C [20]: 97.5%
viability, T/C [21]: 105%
viability, T/C [22]: 97.5%
viability, T/C [23]: 106%
viability, T/C [24]: 73.5%
viability, T/C [25]: 96.2%
viability, T/C [26]: 94.3%
viability, T/C [27]: 98.5%
viability, T/C [28]: 99.2%
viability, T/C [29]: 101%
viability, T/C [30]: 81.5%
viability, T/C [31]: 92.7%
viability, T/C [32]: 89%
viability, T/C [33]: 88.8%
viability, T/C [34]: 87.8%
viability, T/C [35]: 85.9%
viability, T/C [36]: 84.9%

Nc1ccn(C2OC(CO)C(O)C2(F)F)c(=O)n1 (stereo unspecified) + Nc1ccc(C#CCN(C(=O)Cc2ncc(C(F)(F)F)cc2C(F)(F)F)c2ccc(F)cc2)nn1
IC50 (second compound 0.0316 µM): > 10 µM
IC50 (second compound 0.1 µM): > 10 µM
IC50 (second compound 0.316 µM): > 10 µM
IC50 (second compound 1 µM): > 10 µM
IC50 (second compound 3.16 µM): > 10 µM
IC50 (second compound 10 µM): > 10 µM
viability, T/C [1]: 103%
viability, T/C [2]: 92.8%
viability, T/C [3]: 92.1%
viability, T/C [4]: 91.3%
viability, T/C [5]: 81.8%
viability, T/C [6]: 66.6%
viability, T/C [7]: 98%
viability, T/C [8]: 96.1%
viability, T/C [9]: 90.8%
viability, T/C [10]: 81.3%
viability, T/C [11]: 80.4%
viability, T/C [12]: 62.2%
viability, T/C [13]: 106%
viability, T/C [14]: 102%
viability, T/C [15]: 75.9%
viability, T/C [16]: 78%
viability, T/C [17]: 79%
viability, T/C [18]: 68.1%
viability, T/C [19]: 104%
viability, T/C [20]: 90.9%
viability, T/C [21]: 89.4%
viability, T/C [22]: 78.8%
viability, T/C [23]: 80.7%
viability, T/C [24]: 63.7%
viability, T/C [25]: 102%
viability, T/C [26]: 93.3%
viability, T/C [27]: 85.1%
viability, T/C [28]: 84.8%
viability, T/C [29]: 83.7%
viability, T/C [30]: 65.8%
viability, T/C [31]: 92.5%
viability, T/C [32]: 86.7%
viability, T/C [33]: 82.3%
viability, T/C [34]: 84.6%
viability, T/C [35]: 89.2%
viability, T/C [36]: 73.9%

O=c1[nH]cc(F)c(=O)[nH]1 + Nc1ccc(C#CCN(C(=O)Cc2ncc(C(F)(F)F)cc2C(F)(F)F)c2ccc(F)cc2)nn1
IC50 (second compound 0.0316 µM): > 10 µM
IC50 (second compound 0.1 µM): > 10 µM
IC50 (second compound 0.316 µM): > 10 µM
IC50 (second compound 1 µM): > 10 µM
IC50 (second compound 3.16 µM): > 10 µM
IC50 (second compound 10 µM): > 10 µM
viability, T/C [1]: 111%
viability, T/C [2]: 111%
viability, T/C [3]: 98.8%
viability, T/C [4]: 102%
viability, T/C [5]: 112%
viability, T/C [6]: 106%
viability, T/C [7]: 111%
viability, T/C [8]: 106%
viability, T/C [9]: 95.1%
viability, T/C [10]: 106%
viability, T/C [11]: 111%
viability, T/C [12]: 100%
viability, T/C [13]: 110%
viability, T/C [14]: 105%
viability, T/C [15]: 99.5%
viability, T/C [16]: 112%
viability, T/C [17]: 106%
viability, T/C [18]: 90.9%
viability, T/C [19]: 104%
viability, T/C [20]: 98.8%
viability, T/C [21]: 90.5%
viability, T/C [22]: 107%
viability, T/C [23]: 107%
viability, T/C [24]: 99.1%
viability, T/C [25]: 98.7%
viability, T/C [26]: 107%
viability, T/C [27]: 97.6%
viability, T/C [28]: 93.2%
viability, T/C [29]: 103%
viability, T/C [30]: 108%
viability, T/C [31]: 110%
viability, T/C [32]: 103%
viability, T/C [33]: 98%
viability, T/C [34]: 97.5%
viability, T/C [35]: 96.7%
viability, T/C [36]: 101%

Source: PubChem BioAssay AID1963840 (Molecular Pharmacology Branch, DTP, NCI, 2024)
